# Measured values as given in patent US20080045463A1, “Methods For Lowering Hif-1 Mediated Gene Expression” (priority 2004, published 2008).
# Assays:
# HIF-1α [1] = experiment: HIF-1α hydroxyproline detection in U251 whole cell extracts; assay type: cell-based, human; settings: U251, four hours, antibody to hydroxylated ODD region
# Method: (§1) Protein extraction, western blot analysis, and immunocytochemistry were performed as previously described. Mouse monoclonal anti-HIF-1α antibodies were 610958 (BD Biosciences), and NB100-123 (Novus). Mouse monoclonal anti-GFP antibody was 1814460 (Roche). Mouse monoclonal anti-β-actin antibody was ab6276-100 (Abcam). Dimethyloxalylglycine was D1070 (Frontier Scientific). All other chemicals were from Sigma. Antibodies recognizing HPH homologues were from Novus biologicals and the antisera recognizing […] of HIF-1α was kindly provided by R. Freeman.
# Some reactive oxygen species can also induce HIF-1α. […] Next, attention was focused on HIF-1α proline hydroxylation as a target for 2-oxoacids.
# HPH [2] = experiment: HPH activity in extracts of treated U251 cells (35S-pVHL pulldown); assay type: cell-based, human
# Method: (§2) Human HPH-1,2,3 and VHL pcDNA3.1/V5-HIS vectors (kindly provided by R. Bruick) were used for TNT Coupled Reticulocyte Lysate in vitro transcription/translation (Promega). Cytoplasmic extract for HPH activity was made by lysing cell pellets in assay buffer (20 mM Tris, pH 7.5, 5 mM KCl, 1.5 mM MgCl2, and 1 mM DTT) at 4° C. using a homogenizer, centrifuging at 20,000 g for 15 minutes and collecting supernatant for the assay. HPH enzymatic reactions were performed as previously described using either IVT products or cell extracts. This assay, chosen for its specificity for the HPH reaction, was linear over 30 minutes. For each reaction, either 7.5 μL of IVT products or 100 μg of cell extract protein were used as source of the enzyme. Activity was measured by either quantitative scintillation counting or by autoradiography after gel electrophoresis on a 10-20% Tris Glycine gradient gel (Invitrogen).
# To test this U251 cells was exposed to glucose-free Krebs buffer to either hypoxia (1% O2) or 2 mM pyruvate for four hours. Nuclear HIF-1α protein accumulation was induced by both treatments (FIG. 6A). Then the cells were either returned to 21% O2 or the pyruvate was removed by extensively washing with glucose-free Krebs buffer. […]
# HIF-1α [3] = experiment: HIF-1α accumulation in 22B head and neck cancer cells; assay type: cell-based, human; settings: 22B cells, 100 μM each, last 30 minutes after 24 hours accumulation
# Method: (§3) Human U87, U251, U251-HRE (20) and U373 glioma cells were cultured in Eagle's MEM medium (Mediatech). DU145 human prostate cancer cells and 022 human head and neck cancer cells were cultured in RPMI 1640 medium (Sigma). 22B Human head and neck cancer cells were cultured in high glucose DMEM (Gibco) containing 2 mM glutamine. C6 ODD-GFP rat glioma cells were cultured in high glucose DMEM with 1.5 mg/ml G418. All culture media were supplemented with 10% fetal bovine serum and 1% (v/v) penicillin/streptomycin. Rat C6 glioma cells were cultured in high glucose DMEM. For cell hypoxia treatment, the culture dishes were sealed in a modular incubator chamber, flushed with gas containing 1% O2, 5% CO2 and 94% N2 for 5 minutes, and incubated in this environment at 37° C. for indicated times.
# as §1
# HIF-1α [4] = experiment: HIF-1α decay after washout of inducer; assay type: cell-based, human; settings: 100 μM each
# Method: as §3, §1
# To test this U251 cells was exposed to glucose-free Krebs buffer to either hypoxia (1% O2) or 2 mM pyruvate for four hours. Nuclear HIF-1α protein accumulation was induced by both treatments (FIG. 6A). […] HIF-1α immunoreactivity disappeared rapidly upon reoxygenation (return to 21% O2) of hypoxic cells as would be expected with the resumption of oxygen-dependent HIF-1α hydroxylation and proteolysis. […] To directly determine if the HPH activity in glioma cells was reversibly inactivated by pyruvate and oxaloacetate the ^35S-pVHL pulldown assay to measure HPH activity in extracts from cells treated for four hours with the 2-oxoacids was used. To capture the endogenous state of HPH activity, the cell extracts were first assayed without supplementation with exogenous reductants, ascorbate, or iron. […] The minimal HPH activity of extracts from pyruvate or oxaloacetate treated cells could also be restored by supplementation of the extracts with ascorbate or with exogenous ferrous iron (FeSO4) during the assay (FIG. 6D).
# HPH [5] = experiment: 2-Oxoglutarate: HPH binding assay; design: species or system human; settings: addition of 200 μM ferrous iron
# Method: Gel was washed four times with the indicated buffer. Analysis of HPH binding was measured by scintillation counting.
# [6] = tested on: labile intracellular iron pool; experiment: Calcein fluorescence assay for cellular free iron; assay type: cell-based, human; settings: calcein loaded U251 cells
# Method: The ability of 2-oxoacids to chelate the labile intracellular iron pool was measured using the calcein fluorescence assay as previously described. The iron chelators desferrioxamine and bipyridyl were used as positive controls.
# HIF-1α [7] = experiment: Nuclear HIF-1α accumulation in human cancer cell lines (western blot); assay type: cell-based
# Method: as §3, with “DU145 human prostate cancer cells and 022 human head and neck cancer cells were cultured in RPMI 1640 medium (Sigma).” left out
# Protein extraction, western blot analysis, and immunocytochemistry were performed as previously described. […] Mouse monoclonal anti-β-actin antibody was ab6276-100 (Abcam). Dimethyloxalylglycine was D1070 (Frontier Scientific). All other chemicals were from Sigma.
# HPH1, HPH2, and HPH3 = experiment: HPH prolyl hydroxylation assay with in vitro translated HPHs (35S-pVHL pulldown); assay type: biochemical, human; settings: in the absence of ascorbate or other reducing agents
# Method: as §2
# To determine whether HPH activity was directly modulated by pyruvate or oxaloacetate, Pro564 hydroxylation in a biotinylated HIF-1α ODD peptide by in vitro translated HPH1, HPH2, and HPH3 was examined. The ability of streptavidin beads to pull down ^35S-pVHL bound to the biotinylated peptide was used as evidence of HIF-1α ODD peptide hydroxylation. This is the most specific and sensitive assay for HPH activity. […] Such assays can also give high background values in cell extracts.
# HIF-1 = HIF-1 luciferase reporter assay in U251-HRE cells; assay type: cell-based, human; settings: 2 mM 2-oxoacid, 250 μM amino acid, 8 h
# VEGF and GLUT3 = experiment: RT-PCR of HIF-1 regulated genes in U87 cells; assay type: cell-based, human; settings: U87, 5× the level normally found in MEM, 2 d
# Method: Total RNA was isolated using the RNeasy kit (Qiagen). For RT-PCR, 1 μg of total RNA was used with the […] One-Step System (Invitrogen). VEGF, GLUT3, and β-Actin primers were described previously. For quantitative PCR analysis, the iQ SY BR Green Supermix and MyiQ Single-Color
# ODD-GFP = experiment: Live cell assay for oxygen-dependent degradation, ODD-GFP transfected C6 glioma cells; assay type: cell-based, rat; settings: C6 cells in Krebs buffer; amino acids 0.5 mM
# Method: as §3
# Next a live cell assay for oxygen-dependent HIF-1α degradation using C6 rat glioma cells that had been stably transfected with a vector encoding the HIF-1 cc ODD region fused to GFP (ODD-GFP) was performed. The ODD-GFP protein is hydroxylated and degraded in an oxygen dependent manner similar to HIF-1α. As with HIF-1α, a basal, as well as, hypoxia-inducible accumulation of ODD-GFP has been reported.
# HIF-1α [8] = settings: requires conversion to pyruvate via lactate dehydrogenase (Lu et al. 2002); cited from earlier work
smiles,measurement,setting,value
"COC(=O)CNC(=O)C(=O)OC [DMOG, dimethyloxalylglycine]",hydroxyproline (Pro564) in induced HIF-1α,HIF-1α [1],did not contain hydroxyproline
same,HPH activity in extracts of cells treated for four hours,"HPH [2]; U251, 2 mM pyruvate or oxaloacetate, 1 mM DMOG, no exogenous reductants, ascorbate or iron",no loss of HPH activity
O=S(=O)([O-])[O-].[Fe+2] [Fe(II)],accumulated (pyruvate-enhanced) HIF-1α after supplementation,HIF-1α [3],Fe(II)>Fe(III)
same,accumulated (pyruvate-enhanced) HIF-1α after supplementation,HIF-1α [3]; listed as ferrous iron,diminished to a greater extent by ferrous iron than by ferric iron
same,"HPH activity of extracts from pyruvate or oxaloacetate treated cells, extract supplemented during assay",HPH [2]; 100 μM each,restored
same,"HIF-1α decay following induction with pyruvate or oxaloacetate, iron in wash",HIF-1α [4],enhancement of HIF-1α decay
same,decay of NO-induced HIF-1α with iron in wash,HIF-1α [4],accelerated the decay
same,"decay of accumulated HIF-1α after washing out DFO, iron added",HIF-1α [4],promoted decay
same,binding of 35S-HPH homologues to the 2-OG column,HPH [5],doubled
same,intracellular calcein fluorescence,[6],decrease in fluorescence
same,HIF-1α induction by pyruvate and oxaloacetate with iron added to cultured cells,"HIF-1α [7]; U251, Fe(II) 100 μM",prevented HIF-1α induction
same,NO induced HIF-1α accumulation,"HIF-1α [7]; U251, MEM, DETA-NO 300 μM, ascorbate 100 μM, Fe(II) 100 μM, GSH 5 mM",complete inhibition
N[C@@H](CS)C(=O)O [cysteine],stimulation of HIF-1α ODD hydroxylation,"HPH1, HPH2, and HPH3",dose dependently stimulate HIF-1α ODD hydroxylation
same,HRE-luciferase activity induced by pyruvate or oxaloacetate,HIF-1,lowered HRE-luciferase activity
same,basal expression of the HIF-1 regulated genes VEGF and GLUT3,VEGF and GLUT3,lowered the basal expression
same,HIF-1α accumulation by hypoxia or the iron chelator DFO,"HIF-1α [7]; FIG. 3C, 1% O2 or 150 μM DFO",did not affect
same,inhibition of basal HIF-1α accumulation,"HIF-1α [7]; U87, Krebs buffer reconstituted with MEM additives at concentration normally present in MEM, four hours",key amino acids responsible for inhibiting basal HIF-1α accumulation
same,"inhibition of HIF-1α accumulation, L- vs D-isomers and dimer","HIF-1α [7]; U87, four hours, glucose-free Krebs, 1 mM pyruvate or oxaloacetate, 250 μM (FIG. 3C)",effective
same,"HIF-1α induction by glucose, pyruvate, and oxaloacetate",HIF-1α [7]; all cell lines used in this study (data not shown),lowered HIF-1α induction
same,inhibition of basal HIF-1α accumulation in complete culture media,HIF-1α [7]; amino acid raised to 5× its normal level in MEM,likely endogenous inhibitors of basal HIF-1α accumulation
same,ODD-GFP induction by pyruvate or oxaloacetate,ODD-GFP,reduced ODD-GFP induction
N[C@@H](Cc1c[nH]cn1)C(=O)O [histidine],stimulation of HIF-1α ODD hydroxylation,"HPH1, HPH2, and HPH3",dose dependently stimulate HIF-1α ODD hydroxylation
same,basal expression of the HIF-1 regulated genes VEGF and GLUT3,VEGF and GLUT3,lowered the basal expression
CC(O)C(=O)O (stereo not drawn) [lactate],HIF-1α accumulation induced by lactate,HIF-1α [8],can induce HIF-1α accumulation
